The text below walks through data of article PMC11047580, “Design and Synthesis of Novel Amino and Acetamidoaurones with Antimicrobial Activities” (Antibiotics, 2024).

Converted amounts (≈) assume the structure as drawn.

One data set has as its system C. albicans DSM10697. Kind of data set: MIC assay. The format is cell-based, Candida albicans. The following applies: two-fold serial dilutions in liquid media, n = 2–3.
A further data set relates to B. subtilis ATCC6633. Kind of data set: MIC assay. In kind it is cell-based, Bacillus subtilis. The following applies: two-fold serial dilutions in liquid media, n = 2–3.
A further data set has as its system S. aureus ATCC6538P. The experiment in a line: MIC assay. In kind it is cell-based, Staphylococcus aureus. To be noted: two-fold serial dilutions in liquid media, n = 2–3.
The test system of the next data set is E. coli ATCC8739. The experiment in a line: MIC assay. The format is cell-based, Escherichia coli. To be noted: two-fold serial dilutions in liquid media, n = 2–3.
The next data set relates to P. aeruginosa ATCC9027. Kind of data set: MIC assay. The format is cell-based, Pseudomonas aeruginosa. The following applies: two-fold serial dilutions in liquid media, n = 2–3.
The test system of a further data set is M. smegmatis ATCC700084. Kind of data set: MIC assay (REMA). In kind it is cell-based, Mycobacterium smegmatis. To be noted: n = 2–3.
[1] abbreviates: Staphylococcus aureus, ATCC6538P.
Setting [2] is: Pseudomonas aeruginosa, ATCC9027.
Setting [3] is: Mycolicibacterium smegmatis, ATCC700084, REMA microdilution.

As for `C[C@@H]1[C@H](O)[C@@H](C)/C=C/C=C/C=C/C=C/C=C/C=C/C=C/[C@H](O[C@@H]2O[C@H](C)[C@@H](O)[C@H](N)[C@@H]2O)C[C@@H]2O[C@](O)(C[C@@H](O)C[C@@H](O)[C@H](O)CC[C@@H](O)C[C@@H](O)CC(=O)O[C@H]1C)C[C@H](O)[C@H]2C(=O)O` [Amphotericin B, reference compound], in the data set with C. albicans DSM10697 (Candida albicans, DSM10697), the MIC was determined as 0.62 µM (≈ 0.573 µg/mL).

For `COc1ccccc1C=C1Oc2ccc(NC(C)=O)cc2C1=O` [Compound 4], the MIC in the data set with B. subtilis ATCC6633 is reported as 50 µM (≈ 15.5 µg/mL); against S. aureus ATCC6538P, 100 µM (≈ 30.9 µg/mL); with E. coli ATCC8739 it was greater than 100 µM; in the data set on P. aeruginosa ATCC9027 it was greater than 100 µM; in the data set with M. smegmatis ATCC700084 (REMA microdilution) it was greater than 100 µM; in the data set on C. albicans DSM10697, greater than 100 µM.

As to `COc1cccc(/C=C2\Oc3ccc(NC(C)=O)cc3C2=O)c1` [Compound 5, (Z)-N-(2-(3-methoxybenzylidene)-3-oxo-2,3-dihydrobenzofuran-5-yl)acetamide], the melting point stood at 204.2 °C. This compound showed an MIC in the data set on B. subtilis ATCC6633 (Bacillus subtilis, ATCC6633) greater than 100 µM. The compound further returned a minimum inhibitory concentration (MIC) against S. aureus ATCC6538P (setting [1]) of 100 µM (≈ 30.9 µg/mL). The compound further yielded a minimum inhibitory concentration (MIC) against E. coli ATCC8739 (Escherichia coli, ATCC8739) greater than 100 µM. This compound also gave a minimum inhibitory concentration (MIC) against P. aeruginosa ATCC9027 (setting [2]) greater than 100 µM. The MIC against M. smegmatis ATCC700084 (setting [3]) is 100 µM (≈ 30.9 µg/mL). The compound further yielded an MIC in the data set with C. albicans DSM10697 (Candida albicans, DSM10697) greater than 100 µM.

With `COc1ccc(/C=C2\Oc3ccc(NC(C)=O)cc3C2=O)cc1` [Compound 6, (Z)-N-(2-(4-methoxybenzylidene)-3-oxo-2,3-dihydrobenzofuran-5-yl)acetamide], the melting point was 252 °C. In the data set with B. subtilis ATCC6633 (Bacillus subtilis, ATCC6633), this compound came in with an MIC greater than 100 µM. For the same compound, the MIC with S. aureus ATCC6538P (setting [1]) was greater than 100 µM. This compound registered an MIC against E. coli ATCC8739 (Escherichia coli, ATCC8739) greater than 100 µM. The MIC in the data set on P. aeruginosa ATCC9027 (setting [2]) was greater than 100 µM. Further, in the data set with M. smegmatis ATCC700084 (setting [3]), the MIC is greater than 100 µM. In the data set with C. albicans DSM10697 (Candida albicans, DSM10697), this compound had an MIC greater than 100 µM.

Take `COc1ccccc1/C=C1\Oc2ccc(N)cc2C1=O` [Compound 7, (Z)-5-amino-2-(2-methoxybenzylidene)benzofuran-3(2H)-one]: the melting point is 189.3 °C. For the same compound, the MIC with B. subtilis ATCC6633 (Bacillus subtilis, ATCC6633) is greater than 100 µM. In the data set on S. aureus ATCC6538P (setting [1]), the MIC was greater than 100 µM. For the same compound, in the data set on E. coli ATCC8739 (Escherichia coli, ATCC8739), the MIC is greater than 100 µM. For the same compound, the MIC in the data set with P. aeruginosa ATCC9027 (setting [2]) is greater than 100 µM. In the data set on M. smegmatis ATCC700084 (setting [3]), this compound yielded an MIC greater than 100 µM. For the same compound, the MIC against C. albicans DSM10697 (Candida albicans, DSM10697) is greater than 100 µM.

On to `COc1cccc(/C=C2\Oc3ccc(N)cc3C2=O)c1` [Compound 8, (Z)-5-amino-2-(3-methoxybenzylidene)benzofuran-3(2H)-one], for which the minimal inhibitory concentration (MIC) against B. subtilis ATCC6633 (Bacillus subtilis, ATCC6633) was greater than 100 µM; against S. aureus ATCC6538P (setting [1]), greater than 100 µM; against E. coli ATCC8739 (Escherichia coli, ATCC8739), greater than 100 µM; against P. aeruginosa ATCC9027 (setting [2]) it was greater than 100 µM; against M. smegmatis ATCC700084 (setting [3]) it was greater than 100 µM; in the data set with C. albicans DSM10697 (Candida albicans, DSM10697), greater than 100 µM.

`COc1ccc(/C=C2\Oc3ccc(N)cc3C2=O)cc1` [Compound 9, (Z)-5-amino-2-(4-methoxybenzylidene)benzofuran-3(2H)-one]: the MIC in the data set on B. subtilis ATCC6633 (Bacillus subtilis, ATCC6633) was greater than 100 µM; with S. aureus ATCC6538P (setting [1]), greater than 100 µM; against E. coli ATCC8739 (Escherichia coli, ATCC8739), greater than 100 µM; in the data set with P. aeruginosa ATCC9027 (setting [2]), greater than 100 µM; in the data set with M. smegmatis ATCC700084 (setting [3]) it was greater than 100 µM; in the data set with C. albicans DSM10697 (Candida albicans, DSM10697) it was greater than 100 µM.

`CC(=O)Nc1ccc2c(c1)C(=O)/C(=C/c1ccc(OCc3ccccc3)cc1)O2` [Compound 11, (Z)-N-(2-(4-(benzyloxy)benzylidene)-3-oxo-2,3-dihydrobenzofuran-5-yl)acetamide]: the melting point came out at 212.8 °C. Also, the MIC against B. subtilis ATCC6633 (Bacillus subtilis, ATCC6633) is greater than 100 µM. This compound also showed an MIC against S. aureus ATCC6538P (setting [1]) greater than 100 µM. Also, the minimum inhibitory concentration (MIC) against E. coli ATCC8739 (Escherichia coli, ATCC8739) is greater than 100 µM. In the data set with P. aeruginosa ATCC9027 (setting [2]), the MIC was greater than 100 µM. In the data set with M. smegmatis ATCC700084 (setting [3]), this compound registered a minimal inhibitory concentration (MIC) greater than 100 µM. Moreover, the MIC against C. albicans DSM10697 (Candida albicans, DSM10697) was greater than 100 µM.

The compound `Nc1ccc2c(c1)C(=O)/C(=C/c1ccc(OCc3ccccc3)cc1)O2` [Compound 13, (Z)-5-amino-2-(4-(benzyloxy)benzylidene)benzofuran-3(2H)-one] registered a melting point of 141.6 °C. This compound gave an MIC in the data set on B. subtilis ATCC6633 (Bacillus subtilis, ATCC6633) of 100 µM (≈ 34.3 µg/mL). Also, the MIC in the data set with S. aureus ATCC6538P (setting [1]) is greater than 100 µM. The compound further displayed an MIC in the data set on E. coli ATCC8739 (Escherichia coli, ATCC8739) greater than 100 µM. Moreover, in the data set on P. aeruginosa ATCC9027 (setting [2]), the minimum inhibitory concentration (MIC) was greater than 100 µM. The compound further registered an MIC in the data set with M. smegmatis ATCC700084 (setting [3]) greater than 100 µM. In addition, in the data set on C. albicans DSM10697 (Candida albicans, DSM10697), the MIC was greater than 100 µM.

Compound `CC(=O)Nc1ccc2c(c1)C(=O)/C(=C/c1cccc(Oc3ccccc3)c1)O2` [Compound 14, (Z)-N-(3-oxo-2-(3-phenoxybenzylidene)-2,3-dihydrobenzofuran-5-yl)acetamide] yielded a melting point of 196.4 °C. The MIC against B. subtilis ATCC6633 (Bacillus subtilis, ATCC6633) was greater than 100 µM. In the data set on S. aureus ATCC6538P (setting [1]), this compound returned an MIC greater than 100 µM. For the same compound, the MIC against E. coli ATCC8739 (Escherichia coli, ATCC8739) was greater than 100 µM. In addition, the MIC in the data set on P. aeruginosa ATCC9027 (setting [2]) was greater than 100 µM. For the same compound, in the data set on M. smegmatis ATCC700084 (setting [3]), the MIC was greater than 100 µM. The MIC in the data set with C. albicans DSM10697 (Candida albicans, DSM10697) is greater than 100 µM.

Take `Nc1ccc2c(c1)C(=O)/C(=C/c1ccc(Oc3ccccc3)cc1)O2` [Compound 17, (Z)-5-amino-2-(4-phenoxybenzylidene)benzofuran-3(2H)-one]: the melting point came out at 170.6 °C. In the data set with B. subtilis ATCC6633 (Bacillus subtilis, ATCC6633), the minimum inhibitory concentration (MIC) is greater than 100 µM. Moreover, the MIC with S. aureus ATCC6538P (setting [1]) is greater than 100 µM. The same compound returned an MIC in the data set on E. coli ATCC8739 (Escherichia coli, ATCC8739) greater than 100 µM. In the data set with P. aeruginosa ATCC9027 (setting [2]), this compound returned an MIC greater than 100 µM. Moreover, the MIC with M. smegmatis ATCC700084 (setting [3]) is greater than 100 µM. Besides, the MIC with C. albicans DSM10697 (Candida albicans, DSM10697) is greater than 100 µM.

Broadly, the MIC is the lowest concentration that inhibits growth of the organism. A higher MIC goes with a less susceptible organism. What is called melting point is the temperature, or range, at which the solid turns liquid.
